Biological target: T1, EGFR (Homo sapiens, UniProt P00533)
T1 construct: Add 7 ug A431 cell lysate per well (EGFR source); endogenous in cells; host or cells: A431
Assay: EGFR ELISA assay (in vitro kinase activity, EGFR captured from A431 cell lysate)
Assay type: biochemical
Design: concentration or dose not given beside the values
Procedure, shortened: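 EGFR from A431 lysate was captured on anti-EGFR antibody-coated plates and preincubated with compounds for 30 min. Autophosphorylation ran 5 min with 3 uM ATP and 5 mM MnCl2 (final), stopped with 20 mM EDTA. Phosphotyrosine was detected by anti-pTyr ELISA with ABTS/H2O2, read at 410 nm.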

T1 sequence (P00533 25-1210): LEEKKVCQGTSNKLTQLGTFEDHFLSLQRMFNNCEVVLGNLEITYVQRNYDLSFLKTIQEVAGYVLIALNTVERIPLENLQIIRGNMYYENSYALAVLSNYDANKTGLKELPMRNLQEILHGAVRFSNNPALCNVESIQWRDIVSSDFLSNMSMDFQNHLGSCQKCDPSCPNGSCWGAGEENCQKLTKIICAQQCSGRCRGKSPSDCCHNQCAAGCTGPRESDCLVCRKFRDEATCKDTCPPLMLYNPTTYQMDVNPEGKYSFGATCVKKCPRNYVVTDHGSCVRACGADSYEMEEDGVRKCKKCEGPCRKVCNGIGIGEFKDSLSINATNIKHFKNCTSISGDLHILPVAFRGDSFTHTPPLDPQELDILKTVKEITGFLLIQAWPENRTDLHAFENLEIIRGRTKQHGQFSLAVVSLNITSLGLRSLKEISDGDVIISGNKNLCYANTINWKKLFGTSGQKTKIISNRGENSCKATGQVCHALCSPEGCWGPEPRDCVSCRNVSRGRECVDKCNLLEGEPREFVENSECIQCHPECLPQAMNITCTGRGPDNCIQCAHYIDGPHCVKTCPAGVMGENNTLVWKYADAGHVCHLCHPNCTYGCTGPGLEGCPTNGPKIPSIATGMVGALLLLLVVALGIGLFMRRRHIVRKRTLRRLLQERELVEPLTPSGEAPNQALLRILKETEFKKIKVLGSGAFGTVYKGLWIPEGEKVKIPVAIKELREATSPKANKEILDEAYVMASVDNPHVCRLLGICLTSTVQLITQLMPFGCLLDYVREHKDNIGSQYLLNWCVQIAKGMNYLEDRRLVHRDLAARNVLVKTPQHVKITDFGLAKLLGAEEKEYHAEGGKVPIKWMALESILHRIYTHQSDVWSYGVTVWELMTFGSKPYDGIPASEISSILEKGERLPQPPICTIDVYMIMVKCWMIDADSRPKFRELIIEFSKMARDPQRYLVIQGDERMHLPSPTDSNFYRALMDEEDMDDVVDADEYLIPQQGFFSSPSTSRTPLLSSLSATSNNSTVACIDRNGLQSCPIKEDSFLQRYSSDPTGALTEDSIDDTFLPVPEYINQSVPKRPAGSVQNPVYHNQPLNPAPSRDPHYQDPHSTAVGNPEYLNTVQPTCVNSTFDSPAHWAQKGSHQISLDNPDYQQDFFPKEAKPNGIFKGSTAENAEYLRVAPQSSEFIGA

Row | Compound | Biochem EGFR %Inhibition [%]
1 | COc1c([N+](=O)[O-])cc(C=C2C(=O)Nc3ccc(CCCl)cc32)cc1C(C)(C)C [10733/G03] | 0.7
2 | Cc1c(Br)ccc2c1C(=Cc1ccc(Br)s1)C(=O)N2 [10734/C11] | 18.0
3 | COc1c([N+](=O)[O-])cc(C=C2C(=O)Nc3ccc(S(=O)(=O)N4CCOCC4)cc32)cc1C(C)(C)C [10733/F03] | -3.6
4 | O=C1Nc2c(Br)cc(Br)cc2C1=Cc1ccc(O)c(Br)c1 [10734/A09] | 27.3
5 | O=C1Nc2c(Br)cc(Br)cc2C1=Cc1ccc(Br)s1 [10734/A11] | 12.5
6 | O=C1Nc2ccc(I)cc2C1=Cc1ccc(O)c(Br)c1 [10734/B09] | 34.9
7 | CC(C)(C)c1cc(C=C2C(=O)Nc3ccc(S(=O)(=O)Nc4ccc(C(F)(F)F)cc4)cc32)cc(C(C)(C)C)c1OCc1ccccc1 [10733/E05] | 58.3
8 | O=C1Nc2ccc(I)cc2C1=Cc1cc(Cl)cc(Cl)c1O [10734/B03] | 45.1
9 | O=C1Nc2c(Br)cc(Br)cc2C1=Cc1ccc([N+](=O)[O-])cc1 [10734/A06] | -6.4
10 | CC(C)(C)c1ccc(C=C2C(=O)Nc3c(Br)cc(Br)cc32)cc1 [10734/A10] | 27.8
11 | Cc1c(Br)ccc2c1C(=Cc1ccc(O)c(Br)c1)C(=O)N2 [10734/C09] | 36.2
12 | COc1c(C)cc(C=C2C(=O)Nc3ccc(S(=O)(=O)N4CCOCC4)cc32)cc1C [10733/F06] | 17.8
13 | COc1c(C)cc(C=C2C(=O)Nc3ccc(CCCl)cc32)cc1C [10733/G06] | 5.2
14 | O=C1Nc2ccc(I)cc2C1=Cc1cc(Cl)ccc1O [10734/B04] | 38.7
15 | COC(=O)c1[nH]c(C)c(C=C2C(=O)Nc3ccc(S(=O)(=O)Nc4ccc(C(F)(F)F)cc4)cc32)c1C(=O)OC [10718/E07] | 13.9
16 | CCOC(=O)CCc1c(C(=O)OCC)[nH]c(C=C2C(=O)Nc3ccc(S(=O)(=O)Nc4ccc(C(F)(F)F)cc4)cc32)c1CC(=O)OCC [10718/E05] | -3.1
17 | Cc1c(Br)ccc2c1C(=Cc1ccc(C(C)(C)C)cc1)C(=O)N2 [10734/C10] | 24.4
18 | COc1c(O)ccc(C=C2C(=O)Nc3ccc(S(=O)(=O)Nc4ccc(C(F)(F)F)cc4)cc32)c1[N+](=O)[O-] [10733/E11] | 31.6
19 | CNS(=O)(=O)c1ccc2c(c1)C(=Cc1cccc(F)c1O)C(=O)N2 [10734/D08] | -13.7
20 | O=C1Nc2ccc(S(=O)(=O)N3CCOCC3)cc2C1=Cc1cc(Br)ccc1O [10733/F09] | 30.1
21 | Cc1c(Br)ccc2c1C(=Cc1cc(Cl)cc(Cl)c1O)C(=O)N2 [10734/C03] | 48.6
22 | CNS(=O)(=O)c1ccc2c(c1)C(=Cc1cc(Br)cc(Br)c1O)C(=O)N2 [10734/D07] | 51.1
23 | O=C1Nc2c(Br)cc(Br)cc2C1=Cc1cc(Cl)cc(Cl)c1O [10734/A03] | 18.5
24 | O=C1Nc2ccc(S(=O)(=O)Nc3ccc(C(F)(F)F)cc3)cc2C1=Cc1cc([N+](=O)[O-])ccc1O [10733/E10] | 31.3
25 | CC(C)(C)c1cc(C=C2C(=O)Nc3ccc(CCCl)cc32)cc(I)c1OCc1ccccc1 [10733/G02] | -6.2

Source: patent publication EP1247803A2, “Indolinone compounds suitable for modulation of protein kinases” (Sugen, Inc., priority 1996, dated 1998)
